Earlier results on 1 molecule are cited in patent US5942547A, “2-Deoxystreptamine derivatives, pharmaceutical compositions thereof and therapeutic methods using same” (priority 1996, dated 1999).

The test system of this series is REV/RRE interaction.

Turning to `NC[C@@H]1O[C@H](O[C@H]2[C@@H](O)[C@H](O[C@@H]3[C@@H](O)[C@H](N)C[C@H](N)[C@H]3O[C@H]3O[C@H](CN)[C@@H](O)[C@H](O)[C@H]3N)O[C@@H]2CO)[C@H](N)[C@@H](O)[C@@H]1O` [neomycin B], the “disruption of the REV/RRE interaction (in words)” value is reported as “could disrupt the REV/RRE interaction”.
